# Data: paper PMC9227536, “Prediction of Pharmacokinetics of IDP-73152 in Humans Using Physiologically-Based Pharmacokinetics” (Pharmaceutics, 2022)
# Where two headings read alike, the source gives them in different places.
# Legend:
# [1] = Blood partitioning (LC-MS/MS-based depletion method), rat; type: in vitro ADME; conditions: whole blood, rats blood, 0.3, 1, 3 μM, read-out: BP (blood-to-plasma concentration ratio)
# Protocol: In this study, the partitioning of IDP-73152 in blood samples obtained from mice, rats, dogs, and humans was determined using the LC-MS/MS-based depletion method with slight modifications. DP-73152 was added to an aliquot (1 mL) of blank blood or plasma at a final concentration of 0.3, 1, or 3 μM. The mixture was incubated at 37 °C in a water bath for 60 min. After the incubation, the plasma was separated by centrifugation of the blood samples for 5 min at 10,000× g/4 °C and stored at -80 °C until analysis. The blood-to-plasma concentration ratio (BP) was calculated using the equation:(3) BP=[…], where […] is the concentration of the compound at the corresponding blood concentration in the plasma, and CPL is the concentration from the plasma sample separated from the incubated blood.
# [2] = PK study in mice (intravenous and oral); type: in vivo, male ICR mice
# Protocol: The in vivo experimental protocol was approved by the Institutional Animal Care and Use Committee of Research Laboratory at Ildong pharmaceutical Co., Ltd. (Ref. No.: IDL-PDF-001 and 09005-11004). Animals were acclimatized to the laboratory conditions for at least 1 week before the experiments and were kept in the standardized conditions (20–25 °C, 55 ± 5% humidity, and a 12 h light/dark cycle). The animals fasted overnight prior to drug administration, and food was resupplied 4 h post-dose. In this study, a single dose of IDP-73152 at 10 mg/kg (i.e., the injection volume of 5 mL/kg, IDP-73152 dissolved in saline) was intravenously administered to male ICR mice (body weight 18.2–21.4 g, Orient Bio Inc., Seongnam, Korea) via the tail vein. […] Blood samples (100 μL) were collected from the retroorbital plexus at 0.167, 0.333, 0.5, 1, 2, 4, or 8 h after the administration. Plasma was separated/collected from the blood samples by centrifugation for 5 min at 10,000× g/4 °C and stored at −80 °C until analysis. When necessary for a model independent PK analysis, a standard moment analysis was carried out with WinNonlin software using either representative (for the study with mice) or individual (for the study with rats, dogs, and humans) concentration–time profile(s). For the calculation of PBPK models, Berkeley Madonna 8.3.18 (Albany, CA, USA) was used with the fourth-order Runge–Kutta method for numerical integration.
# [3] = PBPK model prediction, humans
# From the text: In this study, the PBPK model involving ten tissues (i.e., adipose tissue, brain, heart, kidney, liver, lung, muscle, skin, spleen, and testis (Figure 2; see Appendix A for detailed mathematical descriptions)) was considered to be applicable for the description of IDP-73152 PK in rats, mice, dogs, and humans. Physiological variables were obtained from the literature; they are summarized in Supplementary Table S1.
# For the estimation of the volume of the distribution of IDP-73512 in rats, the steady-state volume of distribution (Vss) was calculated using the following equation [30]:(10) Vss=VP+Vrbc×EP+∑VT,i×KP,ss,i, where Vp, Vrbc, and VT,i are the volumes of plasma, red blood cells, and tissues, respectively. The erythrocyte-to-plasma partition coefficient (EP), is calculated by EP=1+(BP−1)/Hematocrit . The KP,ss for each tissue obtained from Equation (8) was applied for Equation (10). For the case of non-eliminating organs, the KP,ss was regarded as the tissue-to-plasma partition coefficient (KP) in PBPK equations (Appendix A). For the case of the liver—i.e., the eliminating organ—the KP,ss (KP,ss,LI) had to be corrected to account for the equilibrium being altered by the elimination. Thus, a PBPK-operative KP for liver (KP,LI) was calculated using the following equation [31]:(11) KP,LI=KP,ss,LI/(1−ER), where ER is the hepatic extraction ratio of the compound (i.e., CLh/(QLI·BP)). In this study, a compartmental absorption and transit (CAT) model consisting of stomach and five intestinal segments was considered for the description of the intestinal absorption kinetics of IDP-73152 in animals and humans. We assumed that the initial compartment denoted the stomach (Equation (12)), and the subsequent three compartments represented the small intestine and two additional compartments for the large intestine (i.e., a total of six compartments, with absorption occurring in the five intestinal compartments) (Equation (13)). The differential equations describing the rate of drug absorption and transit in the gastrointestinal tract can be written as:
# For the intestine, viz. i = 1~5:(13) dMi/dt=Kt,i−1×Mi−1−(Kt,i+ka,i)×Mi, where Ms is the amount of drug in the stomach; Mi is the amount of drug in the i-th intestinal segment; Ks, Kt,i, and ka,i are the rate constants of gastric emptying, intestinal transit, and the segmental absorption rate, respectively. […] The absorption rate constant in the intestinal segments in humans, ka,i,human, was assumed to be identical along the segments and calculated as follows: first, Peff was empirically estimated from the Caco-2 cell permeability (Papp):(14) LogPeff=0.4926×LogPapp−0.1454
# Then, ka,i,human for the intestinal segments i = 1~5 was calculated by (15) ka,1~5,human=2×Peff/R […]
# [4] = male, ICR, mouse, plasma, oral 20 mg/kg
compound,measurement,setting,value
CC(C)(C)[C@H](NC(=O)[C@H](CC1CCCC1)CN(O)C=O)C(=O)N1CCC(NCc2cc(F)c(F)cc2F)CC1 [IDP-73152],blood plasma ratio at 60 min,[1],1.56 ± 0.37
same,Vd,"[2]; male, ICR, mouse, plasma, intravenous 10 mg/kg, moment analysis, read-out: Vss",1.43 L/kg
same,half-life,"[2]; male, ICR, mouse, plasma, intravenous 10 mg/kg, read-out: t1/2 (converted)",43.9 min
same,clearance,"[2]; male, ICR, mouse, plasma, intravenous 10 mg/kg, representative concentration–time profile, read-out: CLp (converted)",25.3 mL/min/kg
same,AUC(0-inf),"[2]; male, ICR, mouse, plasma, iv, 10 mg/kg, intravenous 10 mg/kg",6590 ng·h/mL
same,Cmax,[2]; [4],3100 ng/mL
same,Tmax,[2]; [4],20 min
same,bioavailability,"[2]; male, ICR, mouse, plasma, oral 20 mg/kg vs intravenous 10 mg/kg, read-out: F (bioavailability)",78.1%
same,half-life,"[2]; male, ICR, mouse, plasma, oral 20 mg/kg, read-out: t1/2 (terminal phase half-life) (converted)",172 min
same,AUC(0-inf),"[2]; male, ICR, mouse, plasma, po, 20 mg/kg, oral 20 mg/kg",10900 ng·h/mL
same,AUCinf,"[2]; oral 20 mg/kg, 20 mg/kg",10.3 µg·h/mL
same,AUC ratio,[3]; oral 640 mg,1.00
same,Cmax ratio,[3]; oral 640 mg,0.498
same,AUC ratio,[3]; oral 1280 mg,1.12
same,Cmax ratio,[3]; oral 1280 mg,0.671
